According to patent US20180344702A1, “METHODS FOR TREATING PATIENTS WITH HEMATOLOGIC MALIGNANCIES” (Aptose Biosciences, Inc., priority 2017, published 2018):
“And” between values parts separate entries of the source, which are not always exact repeats. Equal entries are not always repeated.

Tests used:
Ba/F3-D835Y (FLT3-D835Y) = assay: Antiproliferative activity (Table 6); format: cell-based, Murin; conditions: 72 h
BTK (E41K) = molecular target: T1, BTK (E41K) (Homo sapiens, UniProt Q06187, E41K); assay: Inhibition of BTK, kinase IC50; format: biochemical
T1 construct: RBC (only as the name of the general kinase protocol)
T1 sequence (Q06187 whole entry E41K): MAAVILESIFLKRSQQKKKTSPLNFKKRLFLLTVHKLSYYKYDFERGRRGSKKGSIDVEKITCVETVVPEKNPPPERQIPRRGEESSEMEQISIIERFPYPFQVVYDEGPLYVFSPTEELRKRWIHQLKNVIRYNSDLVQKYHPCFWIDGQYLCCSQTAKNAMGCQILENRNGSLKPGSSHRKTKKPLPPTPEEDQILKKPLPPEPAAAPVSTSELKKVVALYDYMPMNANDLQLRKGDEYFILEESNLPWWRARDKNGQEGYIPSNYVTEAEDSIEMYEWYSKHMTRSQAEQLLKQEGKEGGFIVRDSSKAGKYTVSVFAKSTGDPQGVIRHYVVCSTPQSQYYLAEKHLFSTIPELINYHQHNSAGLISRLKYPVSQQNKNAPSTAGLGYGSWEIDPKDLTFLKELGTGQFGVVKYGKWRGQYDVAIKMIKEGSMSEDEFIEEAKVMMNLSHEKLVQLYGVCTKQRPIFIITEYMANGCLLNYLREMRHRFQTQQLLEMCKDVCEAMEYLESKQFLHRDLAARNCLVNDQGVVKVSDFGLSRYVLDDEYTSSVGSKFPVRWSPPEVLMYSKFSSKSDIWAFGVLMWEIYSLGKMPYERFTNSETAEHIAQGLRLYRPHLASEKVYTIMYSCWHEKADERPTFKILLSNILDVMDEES
Description: (§1) RBC HotSpot Kinase Assay Protocol:
(§2) Reagents used: Base Reaction buffer; 20 mM Hepes (pH 7.5), 10 mM MgCl2, 1 mM EGTA, 0.02% Brij35, 0.02 mg/ml BSA, 0.1 mM Na3VO4, 2 mM DTT, 1% DMSO. Required cofactors are added individually to each kinase reaction.
(§3) Compound 7 was dissolved in 100% DMSO to a specified concentration. The serial dilution was conducted by epMotion 5070 in DMSO. The substrate was freshly prepared in Reaction Buffer and any required cofactors to the substrate solution were added. The kinase was added to the solution and gently mixed. Compound 7 was added in 100% DMSO into the kinase reaction mixture by Acoustic technology (Echo550; nanoliter range), and incubated for 20 min at room temperature. ^33P-ATP (Specific activity 10 μCi/μl) was added into the reaction mixture to initiate the reaction, which was incubated for 2 hours, whereupon kinase activity was detected by the filter-binding method.

BTK (P190K) = molecular target: T2, BTK (P190K) (Homo sapiens, UniProt Q06187, P190K); assay: Inhibition of BTK, kinase IC50; format: biochemical
T2 construct: RBC (only as the name of the general kinase protocol)
T2 sequence (Q06187 whole entry P190K): as the sequence (Q06187 whole entry E41K) above, with K41E, P190K counted along it
Description: as §1, §2, §3

BTK = molecular target: T3, BTK (Homo sapiens, UniProt Q06187); assay: Inhibition of BTK, kinase IC50; format: biochemical
T3 construct: RBC (only as the name of the general kinase protocol)
T3 sequence (Q06187 whole entry): as the sequence (Q06187 whole entry E41K) above, with K41E counted along it
Description: as §1, §2, §3

[1] = system: Ba/F3 cells transfected with FLT3 ITD-D835Y; assay: Cytotoxicity in isogenic transfected Ba/F3 cells (Table 4); format: cell-based, Murin; conditions: Mus musculus, BaF3, read-out: IC50 in Transfected Ba/F3 cells, FLT3 ITD-D835Y
KG-1 = assay: Cytotoxicity, MTS cell viability; format: cell-based; conditions: Homo sapiens, AML, 72 hour MTS
Description: (§4) Cytotoxicity procedure: Cells were seeded in 96-well plate and treated with vehicle DMSO or Compound 7 at a specified concentration and incubated for 72 hours.

NOM0-1 = assay: Cytotoxicity, MTS cell viability; format: cell-based; conditions: AML, 72 hour MTS
Description: as §4

MUTZ-8 = assay: Cytotoxicity, MTS cell viability; format: cell-based; conditions: AML, 72 hour MTS
Description: as §4

HEL92.1.7 = assay: Cytotoxicity, MTS cell viability; format: cell-based; conditions: Homo sapiens, HEL 92.1.7, AML, 72 hour MTS
Description: as §4

HL60 = assay: Cytotoxicity, MTS cell viability; format: cell-based; conditions: Homo sapiens, HL-60, AML, 72 hour MTS
Description: as §4

Molm-13 = assay: Cytotoxicity, MTS cell viability; format: cell-based; conditions: Homo sapiens, AML, 72 hour MTS
Description: as §4

EOL-1 = assay: Cytotoxicity, MTS cell viability; format: cell-based; conditions: Homo sapiens, EOL1, AML, 72 hour MTS
Description: as §4

Jurkat = assay: Cytotoxicity, MTS cell viability; format: cell-based; conditions: Homo sapiens, ALL, 72 hour MTS
Description: as §4

SKM-1 = assay: Cytotoxicity, MTS cell viability; format: cell-based; conditions: Homo sapiens, AML, 72 hour MTS
Description: as §4

MV4-11 [2] = assay: Cytotoxicity, MTS cell viability; format: cell-based; conditions: Homo sapiens, AML, 72 hour MTS
Description: as §4

THP-1 = assay: Cytotoxicity, MTS cell viability; format: cell-based; conditions: Homo sapiens, AML, 72 hour MTS
Description: as §4

MDS/MPN patient samples = assay: Ex vivo assay for patient sensitivity (MTS, 3-day culture); format: cell-based, human; conditions: N evaluated 15
Description: (§5) 85 Patients with a diagnosis of acute myeloid leukemia (AML), 15 patients with myelodysplastic syndrome/myeloproliferative neoplasms (MDS/MPN), 18 patients with acute lymphoblastic leukemia (ALL), and 56 patients with chronic lymphocytic leukemia (CLL) were evaluated for sensitivity to the multi-kinase inhibitor, Compound 7, using an ex vivo assay. Sensitivity to Compound 7 was evaluated across a concentration range from 10 nM to 10 μM. Cell viability was assessed using a colorimetric, tetrazolium-based MTS assay after a 3-day culture period, and IC50 values were calculated as a measure of drug sensitivity.

ALL patient samples = assay: as above; format: cell-based, human; conditions: N evaluated 18
Description: as §5

AML patient samples = assay: as above; format: cell-based, human; conditions: N evaluated 85, 10 nM to 10 μM
Description: as §5

CLL patient samples = assay: as above; format: cell-based, human; conditions: N evaluated 56
Description: as §5

MV4-11 [3] = assay: Cytotoxicity in high serum conditions (MTS); format: cell-based, human; conditions: MV4-11, 72 hours, 10% vs 30%, 50%, 80% FBS
Description: Compound 7 was tested in a dose-dependent manner at different serum concentrations. […] In this experiment, MV4-11 (n=6) and EOL-1(n=3˜6) cells were treated with or without Compound 7 for 72 hours in medium containing normal (10%) or high serum (30%, 50%, 80%) FBS with an MTS assay serving as an end point.

FLT3(D835Y) = molecular target: T4, FLT3(D835Y) (Homo sapiens, UniProt P36888, D835Y); assay: Inhibition of FLT3 mutants, kinase IC50; format: biochemical
T4 construct: made in house; host or cells: E. coli BL21-derived host (T7 phage) or HEK-293
Description: as §1, §2, §3

[4] = system: Ba/F3 cells transfected with FLT3 ITD; assay: Cytotoxicity in isogenic transfected Ba/F3 cells (Table 4); format: cell-based, Murin; conditions: Mus musculus, BaF3, read-out: IC50 in Transfected Ba/F3 cells, FLT3 ITD
[5] = system: Mino, RAMOS, GRANTA-519 and SU-DHL-6 cells; assay: Cell cycle progression in B-cell malignant cell lines (EdU/PI, FACS); format: cell-based; conditions: FIGS. 27, 28
Description: The data presented in FIGS. 27A-27D and FIGS. 28A-28D were generated using well-known protocols for measuring cell cycle progression (e.g., EdU and/or PI staining followed by FACS analysis using the BD Accuri C6 flow), and is readily apparent to a skilled artisan.
(§6) Cell-cycle analysis: Cells were treated with vehicle, DMSO or Compound 7 and were stained with PI and EdU, and then analyzed by flow cytometry to determine the phases of cell cycle.

MOLM-13 cells = assay: Cell-cycle analysis (flow cytometry); format: cell-based, human; conditions: dose-dependent
Description: as §6

FLT3(ITD) = FLT3(ITD) (Homo sapiens, UniProt P36888); assay: Inhibition of FLT3 mutants, kinase IC50; format: biochemical; design: IC50; other: FLT3(ITD)
Description: as §1, §2, §3

Question: `Cc1cnc(-c2ccc(-c3ccc(NC(=O)Nc4c(F)cc(F)cc4F)cc3F)c3c2C(=O)NC3)[nH]1` [Compound 7, 1-{3-fluoro-4-[7-(5-methyl-1H-imidazol-2-yl)-1-oxo-2,3-dihydro-1H-isoindol-4-yl]-phenyl}-3-(2,4,6-trifluorophenyl)urea] was tested. Which IC50 (Ba/F3-D835Y (FLT3-D835Y)) did it give?
Answer: Its IC50 is 8.26 nM.

Question: And the IC50 (BTK (E41K))?
Answer: The IC50 was 14.5 nM.

Question: And the IC50 (BTK (P190K))?
Answer: The IC50 was 6.59 nM.

Question: And the IC50 (BTK)?
Answer: Its IC50 is 8.42 nM.

Question: What about the IC50 [1] of the same compound?
Answer: The IC50 was 19.3 nM.

Question: And the IC50 (KG-1)?
Answer: The IC50 was 28.7 nM.

Question: And the IC50 (NOM0-1)?
Answer: The IC50 was 20.5 nM.

Question: What about the IC50 (MUTZ-8) of the same compound?
Answer: The IC50 was 794 nM.

Question: And the IC50 (HEL92.1.7)?
Answer: The IC50 was 4690 nM.

Question: And the IC50 (HL60)?
Answer: The IC50 was 280 nM.

Question: And the IC50 (Molm-13)?
Answer: Its IC50 is 0.395 nM.

Question: And the IC50 (EOL-1)?
Answer: The IC50 was 0.045 nM.

Question: And the IC50 (Jurkat)?
Answer: Its IC50 is 1590 nM.

Question: And the IC50 (SKM-1)?
Answer: The IC50 was 816 nM.

Question: What about the IC50 (MV4-11 [2]) of the same compound?
Answer: Its IC50 is 0.238 nM.

Question: What about the IC50 (THP-1) of the same compound?
Answer: Its IC50 is 2970 nM.

Question: What about the “% samples with IC50 < 0.1 μM” value (MDS/MPN patient samples) of the same compound?
Answer: Its value is 53 (8/15) %.

Question: What about the “% samples with IC50 < 0.1 μM” value (ALL patient samples) of the same compound?
Answer: Its value is 61 (11/18) %.

Question: What about the “% samples with IC50 < 0.1 μM” value (AML patient samples) of the same compound?
Answer: The value was 60% and 60 (51/85) %.

Question: And the “% samples with IC50 < 0.1 μM” value (CLL patient samples)?
Answer: Its value is 41 (23/56) %.

Question: And the “Activity at high serum concentration” value (MV4-11 [3])?
Answer: Its value is “retains high activity at high serum concentration”.

Question: And the IC50 (FLT3(D835Y))?
Answer: The IC50 was 166 nM.

Question: And the IC50 [4]?
Answer: The IC50 was 0.5 nM.

Question: And the Cell cycle progression [5]?
Answer: The Cell cycle progression was “interferes with cell cycle progression”.

Question: And the G0/G1 cell-cycle arrest (MOLM-13 cells)?
Answer: The G0/G1 cell-cycle arrest was “induce G0/G1 cell-cycle arrest”.

Question: What about the IC50 (FLT3(ITD)) of the same compound?
Answer: Its IC50 is 0.817 nM.
